Converted amounts (≈) assume the structure as drawn.
How the values were obtained:
[1] = target: T1, Nuclear hormone receptor isoform A (Strongyloides stercoralis, UniProt A0A0K0EQJ4); assay: Agonist activity at GST-tagged Strongyloides stercoralis DAF-12 LBD incubated for 0.5 hrs in presence of biotinylated SRC1 and SRC2 by Alphascreen assay
T1 sequence (A0A0K0EQJ4 whole entry): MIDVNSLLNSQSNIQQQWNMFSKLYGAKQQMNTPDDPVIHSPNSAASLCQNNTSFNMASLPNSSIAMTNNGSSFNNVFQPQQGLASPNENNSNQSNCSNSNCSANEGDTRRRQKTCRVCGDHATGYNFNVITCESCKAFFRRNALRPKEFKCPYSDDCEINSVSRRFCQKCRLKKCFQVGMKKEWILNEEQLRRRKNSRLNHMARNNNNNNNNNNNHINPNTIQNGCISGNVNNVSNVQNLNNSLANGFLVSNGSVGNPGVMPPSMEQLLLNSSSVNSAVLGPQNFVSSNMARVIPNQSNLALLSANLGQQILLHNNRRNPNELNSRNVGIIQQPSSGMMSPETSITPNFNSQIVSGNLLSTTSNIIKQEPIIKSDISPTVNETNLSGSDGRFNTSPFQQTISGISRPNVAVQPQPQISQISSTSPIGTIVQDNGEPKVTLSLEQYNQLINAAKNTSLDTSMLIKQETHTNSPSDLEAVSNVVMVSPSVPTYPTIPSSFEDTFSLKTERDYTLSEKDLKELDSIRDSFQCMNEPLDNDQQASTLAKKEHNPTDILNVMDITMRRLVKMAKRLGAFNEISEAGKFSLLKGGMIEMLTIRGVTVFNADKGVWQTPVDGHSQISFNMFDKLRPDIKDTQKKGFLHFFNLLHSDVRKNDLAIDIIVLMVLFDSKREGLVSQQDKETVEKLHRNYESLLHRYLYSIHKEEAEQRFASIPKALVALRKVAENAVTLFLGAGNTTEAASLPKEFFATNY

[2] = target: T1, Nuclear hormone receptor isoform A; assay: Antagonist activity at GST-tagged Strongyloides stercoralis DAF-12 LBD incubated for 0.5 hrs in presence of biotinylated SRC1 and SRC2 by Alphascreen assay
[3] = target: T1, Nuclear hormone receptor isoform A; assay: Partial agonist activity at GST-tagged Strongyloides stercoralis DAF-12 LBD incubated for 0.5 hrs in presence of biotinylated SRC1 and SRC2 by Alphascreen assay
[4] = target: T2, Nuclear hormone receptor isoform A (Strongyloides stercoralis) (UniProt A0A0K0EQJ4); assay: Partial agonist activity at GST-tagged Strongyloides stercoralis DAF-12 LBD incubated for 0.5 hrs in presence of biotinylated SRC1 and SRC2 by Alphascreen assay relative to control
T2 sequence (whole entry): T1 sequence (A0A0K0EQJ4 whole entry)

[5] = target: T2, Nuclear hormone receptor isoform A (Strongyloides stercoralis); assay: Agonist activity at GST-tagged Strongyloides stercoralis DAF-12 LBD incubated for 0.5 hrs in presence of biotinylated SRC1 and SRC2 by Alphascreen assay relative to control; settings: filed as agonist
[6] = Kinetic solubility of compound at pH 7.4 by HPLC/MS analysis; format: physicochemical; settings: buffer, read-out: Kinetic_solubility
[7] = Drug metabolism in human liver microsome assessed as (2S,6R)-6-((5S,10S,13R,17R)-3-hydroxy-10,13-dimethyl-2,3,4,5,6,9,10,11,12,13,14,15,16,17-tetradecahydro-1H-cyclopenta[a]phenanthren-17-yl)-2-methylheptanoic acid formation by measuring retention time incubated for 90 mins in presence of NADPH by LC-MS/MS analysis; format: ADME; settings: microsomes, 1.5 h
[8] = target: T1, Nuclear hormone receptor isoform A; assay: Agonist activity at Strongyloides stercoralis DAF-12 LBD transfected in CHO cells; format: cell-based
[9] = system: HepG2; assay: Cytotoxicity against human HepG2 cells assessed as reduction in cell viability incubated for 4 hrs by celltiter glo assay; format: toxicity, cell-based; settings: hepg2, 4 h
[10] = Drug metabolism in human liver microsome incubated for 90 mins in presence of NADPH by LC-MS/MS analysis; format: ADME; settings: microsomes, 1.5 h
[11] = Metabolic stability in human liver microsome assessed as half life measured for 30 mins by LC-MS analysis; format: ADME; settings: human liver microsomes
[12] = Metabolic stability in human liver microsome assessed as parent compound remaining measured for 30 mins by LC-MS analysis; format: ADME; settings: human liver microsomes, read-out: Stability

Row | EC50 [1] [µM] | IC50 [2] [µM] | Emax [5] [%] | Compound | also measured
1 | > 100 | 6.9 | – | C[C@H](CCc1nn[nH]n1)[C@H]1CC[C@H]2C3=CC[C@H]4CC(=O)CC[C@]4(C)C3CC[C@]12C (stereo partly specified) | –
2 | – | – | – | CNC(=O)[C@@H](C)CCC[C@@H](C)[C@H]1CC[C@H]2C3=CC[C@H]4CC(=O)CC[C@]4(C)C3CC[C@]12C (stereo partly specified) | EC50 [3]: 1.02 µM; Emax [4]: 11%
3 | 0.41 | – | 85 | C[C@H](CCC[C@H](C)C(=O)NS(C)(=O)=O)[C@H]1CC[C@H]2C3=CC[C@H]4CC(=O)CC[C@]4(C)C3CC[C@]12C (stereo partly specified) | solubility kinetic [6]: > 250 µM; Retention_time [7]: 7.28 min; EC50 [8]: 0.47 µM
4 | – | – | – | C[C@@H](CCC[C@@H](C)[C@H]1CC[C@H]2C3=CC[C@H]4CC(=O)CC[C@]4(C)C3CC[C@]12C)COS(=O)(=O)O (stereo partly specified) | EC50 [3]: 7.2 µM; Emax [4]: 15%
5 | > 100 | 7.8 | – | C[C@H](CCc1nnn(C(C)(C)C)n1)[C@H]1CC[C@H]2C3=CC[C@H]4CC(=O)CC[C@]4(C)C3CC[C@]12C (stereo partly specified) | –
6 | > 100 | 16.8 | – | C[C@H](CCCC1=C(O)CCC1=O)[C@H]1CC[C@H]2C3=CC[C@H]4CC(=O)CC[C@]4(C)C3CC[C@]12C (stereo partly specified) | –
7 | > 100 | 60 | – | C[C@H](CCc1nnn(C(c2ccccc2)(c2ccccc2)c2ccccc2)n1)[C@H]1CC[C@H]2C3=CC[C@H]4CC(=O)CC[C@]4(C)C3CC[C@]12C (stereo partly specified) | –
8 | > 100 | 10 | – | C[C@H](CCc1nnn(C)n1)[C@H]1CC[C@H]2C3=CC[C@H]4CC(=O)CC[C@]4(C)C3CC[C@]12C (stereo partly specified) | –
9 | 0.65 | – | 95 | C[C@H](CCC[C@H](C)C(=O)NS(=O)(=O)N(C)C)[C@H]1CC[C@H]2C3=CC[C@H]4CC(=O)CC[C@]4(C)C3CC[C@]12C (stereo partly specified) | –
10 | 4.7 | – | 40 | Cc1ccc(S(=O)(=O)NC(=O)[C@@H](C)CCC[C@@H](C)[C@H]2CC[C@H]3C4=CC[C@H]5CC(=O)CC[C@]5(C)C4CC[C@]23C)cc1 (stereo partly specified) | –
11 | – | – | – | C[C@H](CO)CCC[C@@H](C)[C@H]1CC[C@H]2C3=CC[C@H]4CC(=O)CC[C@]4(C)C3CC[C@]12C (stereo partly specified) | EC50 [3]: 1.02 µM; Emax [4]: 36%
12 | > 100 | 17.9 | – | C[C@H](CCCc1nnn(C)n1)[C@H]1CC[C@H]2C3=CC[C@H]4CC(=O)CC[C@]4(C)C3CC[C@]12C (stereo partly specified) | –

Row | Compound | EC50 [1] [µM] | IC50 [2] [µM] | Emax [5] [%] | also measured
13 | C[C@H](CCC[C@H](C)C(=O)O)[C@H]1CC[C@H]2C3=CC[C@H]4CC(=O)CC[C@]4(C)C3CC[C@]12C (stereo partly specified) | 0.08 | – | 100 | solubility kinetic [6]: 4 µM (≈ 1.66 µg/mL); Activity [9]: Non-Toxic; Retention_time [7]: 8.51 min; Drug metabolism [10]: Metabolite_Detected; half-life [11]: 17 min; EC50 [8]: 0.09 µM; remaining at 0.5 h [12]: 50%

Reference: ChEMBL document CHEMBL5518214, “Discovery and Structure-Activity Relationships of Novel ssDAF-12 Receptor Modulators” (J Med Chem, 2024)
